Measurements: patent publication US11781984B2, “Fluorescent method to quantify copper or platinum based on catalysis” (University of Pittsburgh—Of the Commonwealth System of …, priority 2018, dated 2023)

Key:
[1] = Fluorescence intensity of Pittsburgh Green versus PPE; format: physicochemical
Procedure: All fluorescence measurements were obtained using a Modulus II Microplate Multimode Reader. Fluorescence was measured after exciting samples with 490 nm light and emission was measured between 510-570 nm. All fluorescence measurements were obtained at room temperature.

[2] = Kinetic study to determine turnover frequency of copper-mediated depropargylation of PPE; conditions: 200 nM Cu^2+, 20 μM PPE, 160 μM DMAPPP
Procedure: To determine whether this method was a catalytic method, we monitored the reaction over time (FIG. 11). A standard curve was prepared for dichlorofluorescein (DCF) by dissolving the solid in EtOH to a concentration of 20 mM. The DCF was then diluted to 500 μM in EtOH. A stock solution was prepared by adding 500 mM pH 8.5 borate buffer (600 μL), EtOH (81.6 μL), 500 μM DCF in EtOH (32 μL), 20 mM DMAPPP in DMSO (6.4 μL). This stock solution (200 μL) was then transferred to a black 96-well plate.
The diluent was prepared by mixing 500 mM borate pH 8.5 buffer (9.00 mL), EtOH (1.70 mL), and 20 mM DMAPPP in DMSO (96 μL). The diluent (100 μL) was transferred to the black 96-well plate. 2× serial dilutions were performed by removing 100 μL of the stock solution from the wells and adding it to the wells containing the diluent. […] The fluorescence of these solutions was measured and a standard curve was generated.
The working solution was prepared by mixing 500 mM borate pH 8.5 buffer (1.20 mL), EtOH (187 μL), 800 μM PPE in EtOH (40 μL), 20 mM DMAPPP in DMSO (12.8 μL) in a conical tube. […] 0 or 2.0 μM Cu^2+ (20 μL) was then added to the wells and the fluorescence was measured every 5 min for 2 h.
The fluorescence value was converted to a concentration of Pittsburgh Green using the linear regression generated from the standard curve of DCF. The fluorescence vs. time was then plotted.

HeLa cells = assay: Fluorescence imaging of copper ions in live HeLa cells; format: cell-based; conditions: HeLa cells loaded with 1 mM CuSO4, 20 μM PPE, 160 μM DMAPPP, 15 min
Procedure: Finally, we applied our method to imaging cellular pools of copper. HeLa cells were loaded with 1 mM CuSO4 in DMEM for 30 min at 37° C. The cells were washed. PPE and DMAPPP were added during imaging to a final concentration of 20 μM and 160 μM, respectively. Images were obtained on a Nikon Ti microscope equipped with a 60× (1.4 NA) objective.

- ratio of fluorescence intensities Pittsburgh Green fluorophore : PPE [1]: 200-400 :1
Substance: Propargyl Pittsburgh Green ether [PPE]
- concentration of reaction product (Pittsburgh Green) produced ([2]; after one hour): approximately 480 nM
- turnover frequency ([2]; borate pH 8.5): ~2.4 per hour
- fluorescence within cells (HeLa cells): time-dependent increase in fluorescence
